Test results taken from PMC4170105 (Journal of nuclear medicine : official publication, Society …, 2013).
Read-outs that look alike come from different tables or passages of the source.

How the values were obtained:
S1Rs [1] = tested on: S1Rs
S1Rs [2] = details: cited from earlier work
S1Rs [3] = target: T1, S1Rs (Rattus norvegicus, UniProt Q9R0C9); experiment: Ex vivo autoradiography of rat brain and muscle sections; type: in vivo; details: baseline
[4] = Stability in human liver microsomes; type: in vitro ADME; details: errors SEM
[5] = monkey plasma
[6] = mouse liver microsomes; errors SEM; previously reported; cited from earlier work
[7] = Ex vivo stability in rat plasma and brain homogenates
[8] = Ex vivo biodistribution in rats; details: rat
[9] = cited from earlier work
S1Rs [10] = target: T1, S1Rs; experiment: Blocking biodistribution in rats pretreated with S1R ligands; type: in vivo; details: pretreatment 1 mg/kg
S1Rs [11] = target: T1, S1Rs; experiment: Rat brain PET/CT imaging, baseline and BD1047 blocking; type: in vivo; details: BD1047 1 mg/kg i.v. 10 min before tracer; 50–60 min after injection
S2Rs = details: no reference given, cited from earlier work
5-HT2 receptors = details: no reference given; cited from earlier work
[12] = 5 min after injection, i.v., n = 4

T1 sequence (Q9R0C9 whole entry): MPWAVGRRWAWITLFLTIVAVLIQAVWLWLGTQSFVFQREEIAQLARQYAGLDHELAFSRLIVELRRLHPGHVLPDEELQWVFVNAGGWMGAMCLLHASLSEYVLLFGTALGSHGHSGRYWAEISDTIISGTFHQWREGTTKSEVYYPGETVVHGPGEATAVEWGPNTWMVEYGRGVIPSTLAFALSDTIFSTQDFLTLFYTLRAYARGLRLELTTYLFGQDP

SMILES: O=C(CCCN1CCC(O)(c2ccc(Cl)cc2)CC1)c1ccc(F)cc1 [haloperidol, reference compound]
- decrease of ^18F-FTC-146 binding in occipital cortex (S1Rs [1]; haloperidol 0.1 mg/kg 10 min before radioligand, 60–75 min after injection): 53%

SMILES: O=c1sc2cc(CCCF)ccc2n1CCN1CCCCCC1 [^18F-FTC-146]
- Ki (S1Rs [2]; read-out: affinity for S1Rs, in vitro binding): 0.0025 nM

SMILES: O=c1sc2cc(CCC[18F])ccc2n1CCN1CCCCCC1 [^18F-FTC-146]
- uptake in corpus callosum and muscle (autoradiography) (S1Rs [3]): little, if any, uptake
- t1/2 [4]: 18.2 ± 3.6 min
- average maximum uptake in all analyzed brain regions (S1Rs [1]; monkey, in vivo, 0.25 h): approximately 0.4 %ID/g
- uptake in cerebellum (S1Rs [1]; monkey, in vivo, 1 h): 0.27 %ID/g
- uptake in occipital cortex (S1Rs [1]; monkey, in vivo, 1 h): 0.27 %ID/g
- uptake in striatum (S1Rs [1]; monkey, in vivo, 1 h): 0.20 %ID/g
- brain uptake level after gradual washout (S1Rs [1]; monkey, in vivo, 2 h): approximately 0.25 %ID/g
- intact ^18F-FTC-146 in plasma ([5]; 5 min): 60%
- intact ^18F-FTC-146 in plasma ([5]; 15 min): 35%
- intact parent tracer in plasma (lower plateau) ([5]; between 50 and 110 min): 15%
- t1/2 [6]: 4.2 ± 0.6 min
- percentage intact radiotracer in plasma ([7]; 15 min after injection): 27.1% ± 5.3%
- percentage intact radiotracer in plasma ([7]; 30 min after injection): 25.3% ± 1.3%
- percentage intact radiotracer in plasma ([7]; 60 min after injection): 19.5% ± 4.4%
- time of peak uptake in the brain [8]: 15 min
- uptake in kidney [8, 12]: 2.14 ± 0.29 %ID/g
- uptake in lung [8, 12]: 4.91 ± 0.63 %ID/g
- uptake in pancreas [8, 12]: 1.58 ± 0.21 %ID/g
- uptake in spleen [8, 12]: 1.34 ± 0.35 %ID/g
- decrease of accumulation in the lungs ([8]; from 5 to 60 min after injection): 75%
- uptake in blood and muscle ([8]; throughout the duration of the study): Negligible uptake
- washout of radiotracer uptake in pancreas, liver, and spleen ([8]; throughout the study (5-60 min)): did not significantly wash out

SMILES: COc1ccc(CCN2CCN(CCCc3ccccc3)CC2)cc1OC [^11C-SA4503]
- unchanged radioligand in monkey plasma ([9]; 90 min after injection): 31%

SMILES: O=c1sc2cc(CCCF)ccc2n1CCN1CCCCCC1 [FTC-146]
- t1/2 [4]: 18.2 min

SMILES: COc1cc(CCN2CCN(CCCc3ccccc3)CC2)ccc1OCC[18F] [^18F-FE-SA4503]
- parent compound present in monkey plasma ([9]; 120 min after injection of tracer): 23%

SMILES: CN(C)CCN(C)CCc1ccc(Cl)c(Cl)c1 [BD1047]
- radioactive signal in bone/skull of pretreated rats compared with baseline rats (S1Rs [10]; 60 min after injection): did not display this same trend
- reduction in radiotracer binding in liver, pancreas, and heart (S1Rs [10]; P < 0.05, < 0.05, < 0.005): significant reduction
- reduction in ^18F-FTC-146 accumulation in rat brain (PET/CT) (S1Rs [11]): 86%
- Ki (S1Rs [2]; read-out: Ki for S1Rs, no reference given): 0.93 nM
- fold lower affinity for S2Rs than for S1Rs (S2Rs): approximately 50 fold
- Ki (S2Rs; read-out: Ki for S2Rs): 47 nM
- affinity for 5-HT2 receptors (5-HT2 receptors): low micromolar affinity
